This passage reports EC50 results from ChEMBL document CHEMBL3137547, “Open Source Malaria Deposition 2. http://malaria.ourexperiment.org”.

SMILES strings stand for the structures.

This assay relates to Plasmodium falciparum. The experiment in a line: OSM: Erythrocyte assay. NF54 with 3H-Hypoxanthine at 72hr time point. Type of assay: functional, organism-based.
`COc1ccc2ccc(Oc3cncc4nnc(-c5ccc(OC(F)F)cc5)n34)cc2n1` returned an EC50 of 1670 nM.

`O=C(NC1CCc2cc(Cl)ccc21)c1cncc2nnc(-c3ccc(OC(F)F)cc3)n12` (configuration not stated) came in with an EC50 of 547 nM.

In turn, `Cc1nn(-c2ccc(F)cc2)c(C)c1-c1nnc2cncc(C(=O)Nc3ccnc(C(F)(F)F)c3)n12` yielded an EC50 of 10000 nM.

Molecule `Fc1ccc(C2(C(Oc3cncc4nnc(-c5ccc(OC(F)F)cc5)n34)C(F)(F)F)CC2)cc1F` (configuration not stated) displayed an EC50 of 10000 nM.

`Cn1cc2ccc(Oc3cncc4nnc(-c5ccc(OC(F)F)cc5)n34)cc2n1`: the EC50 is 6200 nM.

For the molecule `OC(COc1cncc2nnc(-c3ccc(OC(F)F)cc3)n12)c1ccc(F)c(F)c1` (configuration not stated), the EC50 was found to be 124 nM.

On to `FC(F)Oc1ccc(-c2nnc3cncc(OCc4cccc5ccccc45)n23)cc1`, for which the response was half-maximal at 1670 nM (EC50).

`Fc1ccc([C@@H]2[C@@H](Oc3cncc4nnc(-c5ccc(OC(F)F)cc5)n34)CN2C2CC2)cc1F` returned an EC50 of 731 nM.

On to `CC(O)(COc1cncc2nnc(-c3ccc(OC(F)F)cc3)n12)c1ccc(F)c(F)c1` (configuration not stated), for which it took 101 nM to reach a half-maximal effect (EC50).

`FC(F)Oc1ccc(-c2nnc3cncc(Oc4cccc(Oc5ccccn5)c4)n23)cc1` had an EC50 of 6040 nM.

`FC(F)Oc1ccc(-c2nnc3cncc(OCC4CCc5cc(Cl)ccc54)n23)cc1` (configuration not stated) yielded an EC50 of 1460 nM.

In turn, `CC(F)(COc1cncc2nnc(-c3ccc(OC(F)F)cc3)n12)c1ccc(F)c(F)c1` (configuration not stated) displayed an EC50 of 123 nM.

Regarding `FC(F)Oc1ccc(-c2nnc3cncc(Oc4ccc5nc(C(F)(F)F)ncc5c4)n23)cc1`, it took 2020 nM to reach a half-maximal effect (EC50).

`Fc1ccc(C(F)COc2cncc3nnc(-c4ccc(OC(F)F)cc4)n23)cc1F` (configuration not stated) gave an EC50 of 65.4 nM.

In the case of `FC(F)Oc1ccc(-c2nnc3cncc(Oc4ccc5ccsc5c4)n23)cc1`, the concentration for a half-maximal effect (EC50) worked out at 576 nM.

With `Fc1ccc(CCOc2ccc3nnc(-c4ccc(OC(F)F)cc4)n3n2)cc1F`, the EC50 is 6780 nM.

`Fc1cc2ccc(Oc3cncc4nnc(-c5ccc(OC(F)F)cc5)n34)cc2cc1F` registered an EC50 of 839 nM.

Regarding `Fc1cc(F)c2ccc(Oc3cncc4nnc(-c5ccc(OC(F)F)cc5)n34)cc2c1`, the EC50 was determined as 173 nM.

In the case of `Fc1ccc(CCNc2ccc3nnc(-c4ccc(OC(F)F)cc4)n3n2)cc1`, the midpoint of the response, the EC50, lay at 510 nM.

`O=C(Cc1cccc(Cl)c1)Nc1cn2c(-c3ccc(OC(F)F)cc3)nnc2cn1` returned an EC50 of 10000 nM.

`N#Cc1ccc(-c2nnc3ccc(NCCc4cccnc4)nn23)cc1` gave an EC50 of 10000 nM.

`Cn1ccc2cc(Oc3cncc4nnc(-c5ccc(OC(F)F)cc5)n34)ccc21` displayed an EC50 of 1980 nM.

In turn, `O=C1[C@@H](Oc2cn3c(-c4ccc(OC(F)F)cc4)nnc3cn2)[C@@H](c2ccc(F)c(F)c2)N1C1CC1` yielded an EC50 of 10000 nM.

In turn, `FC(F)Oc1ccc(-c2nnc3cncc(Oc4ccc5ccc(C(F)(F)F)nc5c4)n23)cc1` displayed an EC50 of 1630 nM.

For the molecule `Cc1noc2cc(Oc3cncc4nnc(-c5ccc(OC(F)F)cc5)n34)ccc12`, it took 1930 nM to reach a half-maximal effect (EC50).

With `CC1=CC(C)(C)Oc2cc(Oc3cncc4nnc(-c5ccc(OC(F)F)cc5)n34)ccc21`, the response was half-maximal at 1820 nM (EC50).

For the molecule `Cn1ncc2ccc(Oc3cncc4nnc(-c5ccc(OC(F)F)cc5)n34)cc21`, the EC50 came to 10000 nM.

As usually defined, the EC50 is the midpoint of the concentration-response curve. A high value points to a need for much substance.
